Measurements: article PMC10804667, “Molecular mechanism of Fe^3+ binding inhibition to Vibrio metschnikovii ferric ion‐binding protein, FbpA, by rosmarinic acid and its hydrolysate, danshensu” (Protein Science : A Publication of the Protein Society, 2024)
Values after ≈ are worked out from the molar mass of the structure shown. Values joined by “and” are separate entries in the source; they are usually repeats but may differ in a detail not shown here. Equal values may be shown once.

What was measured:
VmFbpA [1] = assay: Isothermal titration calorimetry (ITC) of ligand binding to VmFbpA; design: species or system Vibrio metschnikovii; details: 298 K, 20 mM HEPES pH 8.0, 50 mM NaCl, apo VmFbpA, read-out: K D for VmFbpA
Description: The 6× His‐free apo VmFbpA samples were dialyzed overnight at 4°C against dialysis buffer (20 mM pH 8.0 HEPES, 50 mM NaCl). ITC was performed using MicroCal iTC200 (Malvern). RA, DSS, or CA was dissolved in dialysis buffer at a final concentration of 400 μM and injected 20 times by a motor‐driven syringe into 200 μL of 20 μM Apo VmFbpA. The first injection volume was 0.1 μL and subsequent injection volumes were 2.0 μL. The reference cell of the microcalorimeter was filled with 200 μL of the corresponding dialysis buffer. The titrations were performed at room temperature. The data were analyzed using MicroCal LLC iTC 200 for Windows (Malvern). All experiments were repeated at least twice to ensure reproducibility.

VmFbpA [2] = assay: 6×His-based VmFbpA inhibition assay (pull-down assay) of Fe3+ binding; type: biochemical, Vibrio metschnikovii; details: 60 min at 4°C, 20 mM Tris–HCl pH 8.0, 50 mM NaHCO3, 100 mM NaCl, read-out: IC50 to VmFbpA (inhibition of Fe^3+ binding)
Description: (§1) Fe^3+‐bound His6‐VmFbpA (30 μM, 200 μL) was loaded onto a 40 μL Ni‐NTA slurry resin (bed volume: 20 μL) in a Micro Bio‐Spin column (Bio‐Rad) and incubated at 4°C for 30 min. The column was extensively washed with wash buffer (20 mM Tris–HCl, pH 8.0, 50 mM NaHCO3, 100 mM NaCl). Various concentrations of RA, DSS, or CA (200 μL) were added to the column and incubated for 60 min at 4°C in a solvent consisting of 20 mM Tris–HCl, pH 8.0, 50 mM NaHCO3, and 100 mM NaCl. The column was washed extensively with wash buffer and eluted with 100 μL of elution buffer (wash buffer containing 250 mM imidazole). The Fe concentration of the eluent was determined using ICP‐MS as reported previously (Lu et al. [2019]) and adjusted to the protein concentration, which was measured using a Pierce 660 nm Protein Assay. Samples without FeCl3 were used as a negative control group and samples lacking inhibitors were used as a positive control group. All buffers contained 0.3% DMSO to solubilize the inhibitors, unless otherwise indicated.
(§2) The protein inhibitory rates were calculated using the following formula: Inhibitory rates%=1−Conc.Fesample−Conc.Feapo/Conc.Feholo−Conc.Feapo×100%
(§3) The inhibitory rate was plotted and fitted as a function of inhibitor concentration by a logarithmic function model using GraphPad Prism (version: 9.5.0) software. The 50% inhibitory concentration (IC50) was calculated by reading the concentration at the inhibitory rate of 50%.

[3] = Fe3+ reduction capacity (o-phenanthroline assay); details: 40 μM Fe^3+; concentration giving 20 μM Fe^2+; read-out: EC50 for reduction from Fe^3+ to Fe^2+
Description: Solutions containing 40 μM FeCl3 and varying concentrations of RA, DSS, and CA (0, 0.625, 1.25, 5, 10, 20, and 40 μM) were prepared and analyzed. Each sample was combined with 0.25% o‐phenanthroline (2 mL) followed by a pH adjustment to 3.5 with HCl, and Milli‐Q water was added to reach a final volume of 25 mL. After incubation at room temperature for 1 h, the absorbance at 510 nm was measured using a microplate spectrophotometer (Benchmark Plus, Bio‐Rad), and the concentration of Fe^2+ was determined using FeSO4·7H2O as a standard. The Fe^2+ concentrations were plotted and fitted as a function of Log2(inhibitor concentration) using GraphPad Prism (version: 9.5.0) software with a nonlinear regression model. The half maximal effective concentration (EC50) was calculated by reading the inhibitor concentrations at an Fe^2+ concentration of 20 μM.

V. metschnikovii = assay: Bacteriostatic assay; type: cell-based; details: Vibrio metschnikovii, 20 h, NB medium, 37°C, 20 h culture; concentration at inhibitory rate of 95%
Description: A pre‐culture of V. metschnikovii was prepared in 5 mL of NB medium (3.0 g/L meat extract, 5.0 g/L meat peptone, 10.0 g/L NaCl, pH 7.0) at 37°C. When the OD600 reached ~0.6, 2 μL of the pre‐culture was inoculated into 200 μL of NB medium for the bacteriostatic assay. The culture was performed at 37°C in a 96‐well plate. Bacteriostatic agents (RA, DSS, and CA) were tested at a range of concentrations (5000 μM to 39 μM). The cultures without bacteriostatic agents were used as a natural growth control and the cultures without bacteria were used as the respective sterile controls (Blanks). The OD600 was measured using a microplate spectrophotometer (Benchmark Plus, Bio‐Rad).
The antibacterial inhibitory rates were calculated based on the following formula after culture for 20 h: Inhibitory rates%=1−OD600,NG−OD600,BKs−OD600,Is−OD600,BKs/OD600,NG−OD600,BKs×100%,
where NG, Is, and BKs refer to the natural growth control group, experimental groups with inhibitors, and their respective sterile control groups, respectively.
The inhibitory rate was plotted and fitted as a function of Log2(inhibitor concentration) using GraphPad Prism (version: 9.5.0) software with a nonlinear regression model. The MIC was calculated by reading the concentrations at the inhibitory rate of 95%.

V. metchnikovii = system: V. metchnikovii; design: method as in Lu et al. [2021]; details: 1000 μM; ref Lu et al. [2021]; cited from earlier work
(UniProt Z9CIZ5JT55) = assay: 6×His-based VmFbpA inhibition assay (pull-down assay) of Fe3+ binding; type: biochemical, Vibrio metschnikovii; details: 60 min at 4°C, 20 mM Tris–HCl pH 8.0, 50 mM NaHCO3, 100 mM NaCl, read-out: IC50 to VmFbpA (inhibition of Fe^3+ binding)
Description: as §1, §2, §3

Escherichia coli = system: Escherichia coli; design: method as in Lu et al. [2021]; details: 1000 μM; ref Lu et al. [2021]; cited from earlier work
[4] = design: method as in Sik et al. [2021]; details: after 3 months of storage; ref Sik et al. [2021]; cited from earlier work
[5] = Stability of RA in gel filtration buffer by RPC; type: physicochemical
Description: The stability of RA (1 mg/mL) in gel filtration buffer (20 mM Tris–HCl, pH 8.0, and 100 mM NaCl) at 20°C was assessed in the presence and absence of VmFbpA (molar ratio: 1 to 1) by the same RPC analysis. Sampling was performed every week and diluted 100 times with buffer before injecting into a RESOURCE RPC column. The other conditions are the same as described above.

O=C(O)/C=C/c1ccc(O)c(O)c1 [CA, caffeic acid]
Kd (VmFbpA [1]): 18 µM and ~18 µM | IC50 (VmFbpA [2]): 6000 ± 2000 µM | EC50 [3]: 31 ± 1 µM | MIC (V. metschnikovii): > 3000 µM

O=C(O)[C@H](O)Cc1ccc(O)c(O)c1 [DSS, danshensu]
Kd (VmFbpA [1]): 0.9 µM and ~0.9 µM | IC50 (VmFbpA [2]): 4000 ± 1000 µM | EC50 [3]: 23 ± 1 µM

O=C(/C=C/c1ccc(O)c(O)c1)O[C@H](Cc1ccc(O)c(O)c1)C(=O)O [RA, Rosmarinic acid]
effect on growth of V. metchnikovii (V. metchnikovii): significantly reduced the growth | Kd (VmFbpA [1]): 1.1 ± 0.5 µM | IC50 ((UniProt Z9CIZ5JT55)): 2200 ± 300 µM | effect on growth of Escherichia coli (Escherichia coli): did not affect the growth | EC50 [3]: 14.4 ± 0.1 µM | hydrolysis rate of RA aqueous solution [4]: exceeded 10% | degradation of RA ([5]; 20 mM Tris–HCl pH 8.0, 100 mM NaCl, stored at 20°C for 1 week): 5% | degradation rate of RA ([5]; 20 mM Tris–HCl pH 8.0, 100 mM NaCl, stored at 20°C for 2 weeks): ~ 30% | change of degradation rate of RA in the presence of VmFbpA ([5]; VmFbpA added at molar ratio 1:1, gel filtration buffer): did not change significantly | MIC (V. metschnikovii): 440 ± 70 µM (≈ 159 µg/mL)
